According to paper PMC8447191, “Peptide Amphiphilic-Based Supramolecular Structures with Anti-HIV-1 Activity” (Bioconjugate Chemistry, 2021):
*1 amine or outer side, *2 acyl side, *3 side chain or, on linkers, in order; H or OH if unused. Where a SMILES comes first, the peptide text is derived from it. Side-chain parts run from the residue outwards. The star is where a group is joined. PEG28 = NCCOCCOCCOCCOCCOCCOCCOCCOCCOCCOCCOCCOCCOCCOCCOCCOCCOCCOCCOCCOCCOCCOCCOCCOCCOCCOCCOCCOCCC(=O)O; N(octadecyl)2 = CCCCCCCCCCCCCCCCCCN(CCCCCCCCCCCCCCCCCC)*; Suc = O=C(CCC(=O)[*:2])[*:1]

How the values were obtained:
HIV-1BaL = type: cell-based; conditions: HIV-1BaL, TZM-bl cells; peptide 10-0.00061 μM for 1 h at 37 °C before virus; luciferase after 48 h; sigmoid fit; mean of triplicates
Description: HIV-1BaL[52] was provided by the NIH AIDS Research & Reference Reagent Program (http://www.aidsreagent.org/). Viral stock was prepared by passage through activated PBMCs[53] for 11 days.
Luciferase-reporter HeLa cells stably transfected to express CD4 and CCR5; TZM-bl cells[54]−[56] were grown in Dulbecco’s Minimal Essential Medium (DMEM) (Sigma-Aldrich, Inc., St. Louis, MO) containing 10% fetal calf serum (FCS), 2 mM L-glutamine, and antibiotics (100 U of penicillin/mL, 100 μg of streptomycin/mL) at 37 °C in an atmosphere containing 5% CO2.
All inhibition assays in cellular and tissue explants models were performed using a standardized amount of virus culture supernatant normalized for infectivity. TZM-bl cells were incubated with serial dilutions of peptides (from 10 μM to 0.00061 μM) for 1 h at 37 °C, prior to challenge with HIV-1BaL. Luciferase expression (r.l.u. values) was determined after 48 h. Alternatively, tissue explants were incubated with serial dilutions of peptide (from 100 μM to 0.1 μM) for 1 h before virus (10^4 TCID50/mL) was added for 2 h. Explants were then washed four times with PBS to remove unbound virus and drug. Colorectal explants were then transferred onto gelfoam rafts (Welbeck Pharmaceuticals, UK) and cultured for 15 days as described previously[57] […]. Explants were cultured for up to 15 days in the absence of peptide. Approximately 50% of the supernatants were harvested every 2–3 days and explants were re-fed with fresh media. The extent of viral replication in tissue explants was determined by measuring the p24 antigen concentration in supernatants (INNOTEST HIV antigen mAb; Fujirebio Europe, Belgium). The extent of inhibition by each peptide was calculated. The percentage of inhibition was normalized relative to the r.l.u, for TZM-bl cells, or p24, for tissue explants, values obtained for cells or explants cultured in the absence of virus (100% inhibition) and for cells or explants infected with virus in the absence of peptide (0% inhibition). Data are the mean (±SEM) of triplicates. When a dose–response curve was obtained, IC50 and, if possible, IC95 values were calculated from sigmoid curve fits (GraphPad Prism). For all curves, R^2 is >0.7.

MTT cytotoxicity assay = type: cell-based; conditions: human, HeLa-env cells, PAs coassembled with 5% FAM, 40-2.3 μM, absorbance 560 nm
Description: The metabolic activity of the cell line, related to the cytotoxic effect of the compounds to be tested, is measured after 24 h using the MTT assay. This assay is based on the metabolic reduction of 3-(4,5-dimethylthiazol-2-yl)-2,5-diphenyl-2H-tetrazolium bromide (MTT), carried out by the mitochondrial enzyme succinate dehydrogenase, in a colored compound of blue color (formazan) that can be monitored by absorbance spectroscopy at 560 nm, allowing determination of the mitochondrial functionality of the treated cells.
The HeLa-env cell line is seeded in 96-well plates with an initial density of 15,000 cells per well in 100 μL of culture medium (Dulbecco’s modified Eagle’s medium, DMEM, with 10% FBS added) and incubated for 24 h at 37 °C and 5% CO2 to allow their adhesion. The cell monolayers are washed with PBS, and then 100 μL of PAs formulations (peptide amphiphiles coassembled with 5% FAM) are added in a concentration range from 40 μM to 2.3 μM. The plates are kept in incubation for further 24 h.
At the end of the incubation time, the cells are incubated for 3 h with 1 mg/mL of MTT, dissolved in culture medium without FBS, to allow the formation of formazan crystals. Subsequently, 100 μL of DMSO are added to wells, stirring the plates for 30 min at room temperature to facilitate the complete dissolution of the crystals. Finally, the absorbance at 560 nm is measured in a microplate reader.
The results are expressed as relative percentage between absorbance of PA formulations against absorbance of its DMSO controls and CC50 and CC25 values are taken from dose–response curves.

[1] = Visual stability and aspect of POPC vesicles mixed with PAs (SAXS samples); type: physicochemical; conditions: POPC 20 mM + 2 mM PA, 0.5% DMSO
Description: In Figure 5A,B, we show the spectra corresponding to POPC 20 mM and POPC 20 mM + 2 mM PAs (all of them in the presence of 0.5% DMSO). The band centered at 1.2 nm^–1 and the secondary band at 3.2 nm^–1 were typical of unilamellar vesicles.[35]
The incorporation of PAs had some distinct consequences. The first and more obvious one is the distinction between stable and unstable systems.

**Q.** With `CCCCCCCCCCCCCCCCCCN(CCCCCCCCCCCCCCCCCC)C(=O)CCC(=O)NCCOCCOCCOCCOCCOCCOCCOCCOCCOCCOCCOCCOCCOCCOCCOCCOCCOCCOCCOCCOCCOCCOCCOCCOCCOCCOCCOCCOCCC(=O)NCCCC[C@H](NC(=O)[C@H](Cc1c[nH]c2ccccc12)NC(=O)[C@H](CC(C)C)NC(=O)[C@H](Cc1ccc(O)cc1)NC(=O)[C@H](CCC(=O)O)NC(=O)[C@H](CC(C)C)NC(=O)[C@@H](NC(=O)[C@@H](N)Cc1c[nH]c2ccccc12)[C@@H](C)CC)C(=O)N[C@H](C(=O)N1CCC[C@H]1C(=O)N[C@@H](Cc1ccccc1)C(=O)N[C@@H](CC(=O)O)C(=O)N[C@@H](Cc1ccccc1)C(=O)N[C@@H](Cc1c[nH]c2ccccc12)C(=O)N[C@@H](CCCNC(=N)N)C(=O)NCC(=O)N[C@H](C(=O)N[C@H](C(N)=O)[C@@H](C)CC)C(C)C)C(C)C` [K-PAdialkyl] (H-WILEYLWK([PEG28-Suc-N(octadecyl)2])VPFDFWRGVI-NH2) as the compound, how does the IC50 (HIV-1BaL) read?
**A.** 50 nM

**Q.** What about the CC50 at 24 h (MTT cytotoxicity assay) of the same compound?
**A.** > 40000 nM

**Q.** What about the “stability / aspect of the sample” value [1] of the same compound?
**A.** milky

**Q.** What about the vesicular bilayer thickness of the same compound?
**A.** 9 nm
